Peptide text beside a SMILES is read from it. * marks the point of attachment. 5FAM = O=C1OC2(c3ccc(O)cc3Oc3cc(O)ccc32)c2ccc(C(=O)*)cc21; AMC = Cc1cc(=O)oc2cc(N*)ccc12; Cbz = O=C(OCc1ccccc1)*
Tests used:
Assay type in all cases: biochemical
human plasma kallikrein [1] = target: T1, human plasma kallikrein (Homo sapiens, UniProt P03952); assay: Kallikrein inhibition assay (FLINT) with quenched AMC peptide substrate; conditions: 30 min preincubation; 50 μM Z-Gly-Pro-Arg-AMC substrate; 2 nM kallikrein; top compound concentration 1 μM
T1 sequence (P03952 391-638 limits assumed): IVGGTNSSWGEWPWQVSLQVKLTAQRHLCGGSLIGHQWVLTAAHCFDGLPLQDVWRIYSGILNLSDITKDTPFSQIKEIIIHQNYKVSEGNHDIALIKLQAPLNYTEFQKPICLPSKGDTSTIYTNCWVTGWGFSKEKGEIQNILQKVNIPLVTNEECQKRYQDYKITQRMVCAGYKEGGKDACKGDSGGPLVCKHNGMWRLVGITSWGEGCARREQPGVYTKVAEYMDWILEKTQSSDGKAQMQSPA
T1 sequence (P03952 20-390 partner limits assumed): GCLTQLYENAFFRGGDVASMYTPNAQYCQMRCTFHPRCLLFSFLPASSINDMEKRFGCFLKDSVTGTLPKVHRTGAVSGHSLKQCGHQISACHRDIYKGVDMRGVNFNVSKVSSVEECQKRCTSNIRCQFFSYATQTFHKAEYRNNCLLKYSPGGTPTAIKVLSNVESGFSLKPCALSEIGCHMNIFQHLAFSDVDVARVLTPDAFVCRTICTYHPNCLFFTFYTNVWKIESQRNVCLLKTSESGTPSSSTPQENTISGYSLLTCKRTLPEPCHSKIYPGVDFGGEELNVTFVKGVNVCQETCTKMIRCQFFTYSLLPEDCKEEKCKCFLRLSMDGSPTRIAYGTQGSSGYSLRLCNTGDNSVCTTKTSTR
Description: Biological Example 2: Kallikrein Inhibition Assay Utilizing a Quenched AMC Peptide Substrate
(§1) A fluorescence intensity (FLINT) based assay was used to monitor inhibition of human plasma kallikrein. The peptide substrate, Z-Gly-Pro-Arg-AMC (Purchased from Bachem; Catalog #I-1150) was chosen based on its relatively low KM for kallikrein which enables running the assay at lower substrate concentrations to control background fluorescence.
The Kallikrein FLINT assay was used with the following Z-Gly-Pro-Arg-AMC assay buffer: 50 mM Tris, pH 7.5, 100 mM NaCl, 5 mM CaCl2, 0.1 mg/mL BSA, 0.03% CHAPS. Assay buffer was prepared by mixing all ingredients fresh. 2× Z-Gly-Pro-Arg-AMC peptide substrate was prepared by diluting 10 mM stock into 1× assay buffer for a 100 μM working concentration (50 μM final concentration). […]
Test compound(s) were run in an 11-point, 3-fold serial dilution with a final top compound concentration of 1 μM. […] The assay was run with kinetic (KIN) reads at 5 min intervals over 30 minutes. […]
(§2) Percent inhibition (IC50) curves were generated per compound tested, and data was analyzed using a 4-parameter logistic fit using GeneData Screener. The relative fluorescence unit (RFU) values were normalized to percent inhibition using the following equation: % inhibition=((HC−LC)−(compound−LC)/(HC−LC))*100 […]

Factor XIa [2] = target: T2, Factor XIa (Homo sapiens, UniProt P03951); assay: Factor XIa inhibition assay (FLINT) with fluorophore-quencher pair peptide substrate
T2 sequence (P03951 388-625 limits assumed): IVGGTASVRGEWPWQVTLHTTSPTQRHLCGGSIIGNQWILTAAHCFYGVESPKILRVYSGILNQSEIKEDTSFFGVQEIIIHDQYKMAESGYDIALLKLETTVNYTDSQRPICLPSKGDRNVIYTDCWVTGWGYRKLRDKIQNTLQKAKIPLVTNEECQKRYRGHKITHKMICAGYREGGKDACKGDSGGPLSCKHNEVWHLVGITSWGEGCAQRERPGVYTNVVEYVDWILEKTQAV
T2 sequence (P03951 19-387 partner limits assumed): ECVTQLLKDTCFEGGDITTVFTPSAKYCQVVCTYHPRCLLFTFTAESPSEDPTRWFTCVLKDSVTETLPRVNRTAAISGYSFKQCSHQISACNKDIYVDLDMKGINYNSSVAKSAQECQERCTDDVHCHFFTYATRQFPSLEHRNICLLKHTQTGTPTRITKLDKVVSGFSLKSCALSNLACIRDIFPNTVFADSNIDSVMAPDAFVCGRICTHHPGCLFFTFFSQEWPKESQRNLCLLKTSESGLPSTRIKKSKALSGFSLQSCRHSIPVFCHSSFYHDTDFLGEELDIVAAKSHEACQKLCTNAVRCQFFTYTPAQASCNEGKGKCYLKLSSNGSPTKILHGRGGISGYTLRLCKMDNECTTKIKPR
Description: Biological Example 1: Factor XIa Inhibition Assay Utilizing a Fluorophore-Quencher Pair Peptide Substrate
(§3) A fluorescence intensity (FLINT) based assay was used to monitor inhibition of Factor XIa. The peptide substrate, 5Fam-KLTRAETV-K5Tamra (purchased from New England Peptide) was chosen based on the FXI sequence. Conversion of zymogen FXI to its activated form, FXIa, occurs by proteolytic cleavage by […] at two sites, Arg146 and Arg180. The custom peptide used in this assay was based on the Arg146 cleavage site of FXI. The peptide substrate was designed with a fluorophore-quencher pair, where the fluorescence is quenched until FXIa cleaves the 8-mer peptide after the Arg residue.
The Factor XIa FLINT assay was used with the following 5Fam-KLTRAETV-K5Tamra assay buffer: 50 mM Tris, pH 7.5, 100 mM NaCl, 5 mM CaCl2, 0.1 mg/mL BSA, 0.03% CHAPS. […]
Test compound(s) were run in an 11-point, 3-fold serial dilution with a final top compound concentration of 100 nM. […] The assay was run with kinetic (KIN) reads at 5 min intervals over 30 minutes. […]
as §2

Factor XIa [3] = target: T2, Factor XIa; assay: Kinetic parameters of the peptide substrate with Factor XIa (substrate inhibition model); conditions: substrate of FXIa
Description: as §3

human plasma kallikrein [4] = target: T1, human plasma kallikrein; assay: Kinetic parameters of the peptide substrate with kallikrein (Michaelis-Menten fit)
Description: as §1

NC(=O)c1ccc(NC(=O)[C@@H]2CC[C@H]3CCC(c4c(-n5cnnn5)ccc(Cl)c4F)=CC(=O)N32)cc1F [ID No. 20, (3S,9aR)-N-(4-carbamoyl-3-fluorophenyl)-7-(3-chloro-2-fluoro-6-(1H-tetrazol-1-yl)phenyl)-5-oxo-2,3,5,8,9,9a-hexahydro-1H-pyrrolo[1,2-a]azepine-3-carboxamide] was tested, and the IC50 (human plasma kallikrein [1]) was 802 nM, the IC50 (Factor XIa [2]; 30 min preincubation, 15 μM 5Fam-KLTRAETV-K5Tamra substrate, top compound concentration 100 nM, kinetic read) was greater than 100 nM and the Ki (Factor XIa [2]; same assay as Factor XIa IC50) was greater than 50 nM.

For “5Fam-KLTRAETV-K5Tamra (5FAM-KLTRAETV-{K(5-TAMRA)}) [fluorophore-quencher pair peptide substrate based on the Arg146 cleavage site of FXI, purchased from New England Peptide]”, the Ki (Factor XIa [3]) was 61600 nM, the Km (Factor XIa [3]) was 12.4 µM and the kcat (Factor XIa [3]) was 0.86 s⁻¹.

Work on Cc1cc(=O)oc2cc(NC(=O)[C@H](CCCNC(=N)N)NC(=O)[C@@H]3CCCN3C(=O)CNC(=O)OCc3ccccc3)ccc12 [Z-Gly-Pro-Arg-AMC] (Cbz-Gly-Pro-Arg-{AMC}) yielded a kcat (human plasma kallikrein [4]) of 0.76 s⁻¹.
